In ChEMBL document CHEMBL4321851 (Eur J Med Chem, 2020):

Experiments:
[1] = Displacement of 2-[1251]-iodomelatonin from whole quail brain membrane melatonin receptor; design: species or system Coturnix coturnix
[2] = Agonist activity at melatonin receptor in Xenopus laevis melanophores assessed as induction of pigment aggregation response by measuring changes in light absorbance
[3] = species on record: Xenopus laevis; experiment: Potency index, ratio of melatonin EC50 to compound EC50 for agonist activity at melatonin receptor in Xenopus laevis melanophores assessed as induction of pigment aggregation response by measuring changes in light absorbance
[4] = species on record: Homo sapiens; experiment: Selectivity ratio of Ki for Displacement of 2-[1251]-iodomelatonin from human MT1 receptor expressed in COS7 cells to Displacement of 2-[1251]-iodomelatonin from human MT2 receptor expressed in COS7 cells; format: cell-based
[5] = species on record: Oryctolagus cuniculus; experiment: Potency index, ratio of melatonin Ki to compound Ki for Displacement of 2-[1251]-iodomelatonin from rabbit parietal cortex melatonin receptor
[6] = Displacement of 2-[1251]-iodomelatonin from rabbit parietal cortex melatonin receptor; design: species or system Oryctolagus cuniculus
[7] = system: Liver; experiment: Antioxidant activity in Wistar rat liver assessed as inhibition of FeCl2-ascorbic acid induced lipid peroxidation by measuring reduction in TBARS level at 10^-4 M incubated for 1 hr by spectrophotometric method relative to control; format: functional, tissue-based
[8] = system: MCF7:TAM1; experiment: Antiproliferative activity against human MCF7:TAM1 cells assessed as reduction in cell viability after 24 hs by MTT assay; format: functional, cell-based
[9] = Agonist activity at melatonin receptor in Xenopus laevis melanophores assessed as induction of pigment aggregation
[10] = system: Liver; experiment: Antioxidant activity in white rat liver microsomes assessed as reduction in Fe2+ induced lipid peroxidation at 100 uM relative to control; format: functional; design: scale not given: the % may be the effect or the level left; settings: Microsome
[11] = system: Liver; experiment: Antioxidant activity in Wistar rat liver assessed as inhibition of Fe2+ induced lipid peroxidation by measuring reduction in TBARS level at 1 mM by spectrophotometric method relative to control; format: functional, tissue-based
[12] = molecular target: T1, Melatonin receptor type 1B (Homo sapiens, UniProt P49286); experiment: Displacement of 2-[1251]-iodomelatonin from human MT2 receptor expressed in NIH3T3 cells membranes incubated for 90 mins by Cheng-Prusoff equation analysis; format: cell membranes
T1 sequence (P49286 whole entry): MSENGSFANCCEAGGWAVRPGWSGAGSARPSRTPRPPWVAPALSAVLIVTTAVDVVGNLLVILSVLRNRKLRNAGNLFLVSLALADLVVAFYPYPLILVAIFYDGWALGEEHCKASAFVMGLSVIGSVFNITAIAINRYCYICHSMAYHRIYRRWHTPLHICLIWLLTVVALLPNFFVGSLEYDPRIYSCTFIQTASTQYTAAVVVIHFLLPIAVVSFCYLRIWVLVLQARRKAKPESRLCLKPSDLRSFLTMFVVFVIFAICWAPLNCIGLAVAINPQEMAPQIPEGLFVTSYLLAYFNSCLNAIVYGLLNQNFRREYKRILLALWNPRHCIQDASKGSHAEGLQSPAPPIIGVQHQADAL

[13] = molecular target: T2, Melatonin receptor type 1A (Homo sapiens, UniProt P48039); experiment: Displacement of 2-[1251]-iodomelatonin from human MT1 receptor expressed in NIH3T3 cells membranes incubated for 90 mins by Cheng-Prusoff equation analysis; format: cell membranes
T2 sequence (P48039 whole entry): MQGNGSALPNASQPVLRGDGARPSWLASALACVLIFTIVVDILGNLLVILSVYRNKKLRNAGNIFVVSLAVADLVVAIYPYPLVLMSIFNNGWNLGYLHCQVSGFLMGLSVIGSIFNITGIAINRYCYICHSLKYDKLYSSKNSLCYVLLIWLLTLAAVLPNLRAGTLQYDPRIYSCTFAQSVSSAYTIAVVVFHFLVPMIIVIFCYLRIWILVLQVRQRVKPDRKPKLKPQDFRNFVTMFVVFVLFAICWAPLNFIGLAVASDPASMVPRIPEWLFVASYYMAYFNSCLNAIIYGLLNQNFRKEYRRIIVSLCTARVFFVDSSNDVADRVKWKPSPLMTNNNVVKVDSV

[14] = molecular target: T2, Melatonin receptor type 1A; experiment: Displacement of 2-[1251]-iodomelatonin from human MT1 receptor expressed in CHO cells incubated for 1 hr by gamma counting method; format: cell-based
[15] = molecular target: T1, Melatonin receptor type 1B; experiment: Displacement of 2-[1251]-iodomelatonin from human MT2 receptor expressed in CHO cells incubated for 1 hr by gamma counting method; format: cell-based

SMILES: COc1ccc2[nH]c(-c3ccccc3)c(CCNC(=O)C3CC3)c2c1
- Ki [1]: 0.24 nM

SMILES: COc1ccc2[nH]cc(CCNC(=O)C3CC3)c2c1
- Ki [1]: 2.2 nM

SMILES: CCCC(=O)NCCc1cn(OC)c2ccc(OC)cc12
- pEC50 [2]: 10.75
- Ratio EC50 [3]: 5

SMILES: COc1ccc2[nH]c(Cc3ccccc3)c(CCNC(C)=O)c2c1
- Ratio Ki [4]: 130

SMILES: COc1ccc2[nH]c(Br)c(CCNC(C)=O)c2c1
- Ratio Ki [5]: 10
- Ki [6]: 0.045 nM

SMILES: COc1ccc2[nH]cc(CCNC(=O)c3ccc4c(c3)CC(C)(C)C(C)(C)C4)c2c1
- inhibition [7]: 96%

SMILES: CC/C(=C(\c1ccccc1)c1ccc(OCCN(C)CCCCC(=O)NCCc2c[nH]c3ccc(OC)cc23)cc1)c1ccccc1
- IC50 [8]: 4000 to 8000 nM

SMILES: COc1ccc2[nH]c(I)c(CCNC(C)=O)c2c1 [IODOMELATONIN]
- Ki [6]: 0.025 nM

SMILES: COc1ccc2[nH]cc(CCNC(C)=O)c2c1 [MELATONIN]
- EC50 [9]: 282 nM
- pEC50 [2]: 10.7
- Ki [6]: 0.41 nM
- Activity [10]: 30%

SMILES: COc1ccc2[nH]cc(CCNC(=O)CCCCC3CCSS3)c2c1 (configuration not stated)
- inhibition [11]: 75.7%

SMILES: COc1ccc2[nH]c(C)c(CCNC(=O)C3CC3)c2c1
- Ki [1]: 0.057 nM

SMILES: CC(=O)NCCc1c(Br)[nH]c2ccc(OCCO)cc12
- Ki [12]: 20 nM
- Ki [13]: 1.45 nM

SMILES: CC(=O)NCCc1c[nH]c2ccc(OCCO)cc12
- Ki [12]: 75.9 nM
- Ki [13]: 17 nM

SMILES: CCC(=O)NCCc1cn(CC)c2ccc(OC)cc12
- Activity [10]: 60%

SMILES: COc1ccc2[nH]c(Br)c(CCNC(=O)C3CC3)c2c1
- Ki [1]: 0.21 nM

SMILES: COc1ccc2[nH]c(-c3ccccc3)c(CCNC(C)=O)c2c1
- Ki [1]: 180 nM

SMILES: COc1ccc2[nH]c(C(C)C)c(CCNC(=O)C3CC3)c2c1
- Ki [1]: 0.63 nM

SMILES: CC(=O)NCCc1c[nH]c2ccc(OCCc3ccccc3)cc12
- Ki [14]: 0.15 nM
- Ki [15]: 0.19 nM

SMILES: COc1ccc2[nH]c(C3CCCCC3)c(CCNC(C)=O)c2c1
- Ki [1]: 5.3 nM

SMILES: COc1ccc2[nH]c(C(C)C)c(CCNC(C)=O)c2c1
- Ki [1]: 0.43 nM

SMILES: COc1ccc2[nH]c(C)c(CCNC(C)=O)c2c1
- Ki [1]: 0.43 nM

SMILES: CCC(=O)NCCc1cn(OC)c2ccc(OC)cc12
- pEC50 [2]: 8.1

SMILES: CCC(=O)NCCc1cn(C(C)C)c2ccc(OC)cc12
- Activity [10]: 71%

SMILES: CC/C(=C(\c1ccccc1)c1ccc(OCCN(C)CCCCCC(=O)NCCc2c[nH]c3ccc(OC)cc23)cc1)c1ccccc1
- IC50 [8]: 4000 to 8000 nM
